From patent publication US20080085494A1, “Dental Compositions Containing Oxirane Monomers” (priority 2004, published 2008)

Tests used:
Format in all cases: cell-based
Conditions in all cases: results to date
[1] = system: strain TA100; assay: Ames mutagenicity evaluation, strain TA100
Method: (§1) Ames mutagenicity evaluations of Compounds A-D were performed by the School of Pharmacy, University of Missouri at Kansas City (UMKC). Results to date have shown Compounds A, C, and D to be negative in strains TA100 and TA97A.

[2] = system: strain TA97A; assay: Ames mutagenicity evaluation, strain TA97A
Method: as §1

[3] = system: strain TA102; assay: Ames mutagenicity evaluation, strain TA102
[4] = system: strain TA1535; assay: Ames mutagenicity evaluation, strain TA1535
[5] = system: strain TA98; assay: Ames mutagenicity evaluation, strain TA98

Structure (SMILES) | Ames mutagenicity [1] | Ames mutagenicity [2] | Ames mutagenicity [3] | Ames mutagenicity [4] | Ames mutagenicity [5]
c1ccc(OCCCCCOc2ccccc2CC2CO2)c(CC2CO2)c1 (centres unmarked) [Compound C, 1,5-Bis[2-(2,3-epoxypropyl)phenoxy]pentane] | negative | negative | – | – | –
c1ccc(OCCCCCCCCCCOc2ccccc2CC2CO2)c(CC2CO2)c1 (centres unmarked) [Compound A, 1,10-Bis[2-(2,3-epoxypropyl)phenoxy]decane] | negative | negative | – | – | –
c1ccc(OCCCOc2ccccc2CC2CO2)c(CC2CO2)c1 (centres unmarked) [Compound B, 1,3-Bis[2-(2,3-epoxypropyl)phenoxy]propane] | negative | marginally positive | negative | negative | negative
c1ccc(OCCCCCCOc2ccccc2CC2CO2)c(CC2CO2)c1 (centres unmarked) [Compound D, 1,6-Bis[2-(2,3-epoxypropyl)phenoxy]hexane] | negative | negative | – | – | –
